Data published in ChEMBL document CHEMBL1201862, “PubChem BioAssay data set” (2004).
Active and inactive are the calls of the source.

Columns and labels:
[1] = target: Peroxisome proliferator-activated receptor gamma/Nuclear receptor coactivator 3 (Homo sapiens, UniProt P37231); assay: (§1) TR-FRET dose response biochemical High Throughput Screening assay for agonists of the steroid receptor coactivator 3 (SRC-3) recruitment by the peroxisome proliferator-activated receptor gamma (PPAR gamma): non-selective agonists. [Related pubchem assays: 1301 (Confirmation screen.), 1048 (Primary screen.)]; format: functional
[2] = target: Peroxisome proliferator-activated receptor gamma/Nuclear receptor coactivator 1 (Homo sapiens, UniProt P37231); assay: as §1, with “1 (SRC-1)” for “3 (SRC-3)”, “assays (depositor defined):AID1300, AID1808, AID504735, AID631]” for “assays: 1301 (Confirmation screen.), 1048 (Primary screen.)]”; format: protein assay
[3] = target: Peroxisome proliferator-activated receptor gamma/Nuclear receptor coactivator 2 (Homo sapiens, UniProt P37231); assay: TR-FRET dose response biochemical High Throughput Screening assay for agonists of the steroid receptor coactivator 2 (SRC-2) recruitment by the peroxisome proliferator-activated receptor gamma (PPAR gamma): non-selective agonists. [Related pubchem assays: 1297, 1032 ]; format: functional
[4] = target: T1, Coagulation factor XII (Homo sapiens, UniProt P00748); assay: Factor XIIa Dose Response Confirmation from Single Well HTS. [Related pubchem assays (depositor defined):AID701]; format: functional
T1 sequence (P00748 whole entry): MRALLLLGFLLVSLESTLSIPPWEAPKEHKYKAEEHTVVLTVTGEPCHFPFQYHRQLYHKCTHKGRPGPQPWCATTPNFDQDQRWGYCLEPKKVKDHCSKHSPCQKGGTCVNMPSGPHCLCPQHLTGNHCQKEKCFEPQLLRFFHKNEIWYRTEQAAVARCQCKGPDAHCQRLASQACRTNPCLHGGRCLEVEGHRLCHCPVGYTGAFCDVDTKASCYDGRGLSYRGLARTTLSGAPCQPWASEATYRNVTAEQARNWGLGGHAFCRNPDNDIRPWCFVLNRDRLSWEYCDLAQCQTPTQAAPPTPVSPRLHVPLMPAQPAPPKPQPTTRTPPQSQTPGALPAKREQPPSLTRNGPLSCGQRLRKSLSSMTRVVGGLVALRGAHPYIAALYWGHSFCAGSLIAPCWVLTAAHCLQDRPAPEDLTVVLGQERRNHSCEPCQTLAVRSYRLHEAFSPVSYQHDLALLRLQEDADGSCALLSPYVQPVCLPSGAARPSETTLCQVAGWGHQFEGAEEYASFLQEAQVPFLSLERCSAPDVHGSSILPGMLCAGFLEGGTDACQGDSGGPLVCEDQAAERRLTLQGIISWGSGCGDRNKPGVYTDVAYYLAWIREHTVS

[5] = target: Mu-type opioid receptor (Homo sapiens, UniProt P35372); assay: HTS Image-Based Screen for Agonists of the MOR Receptor. [Related pubchem assays (depositor defined):AID1777, AID1785, AID1786, AID2133]; format: functional;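 also: imaging of beta-arrestin GFP recruitment into spots after receptor activation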
[6] = test system: INS1; assay: beta cell apoptosis inhibitors, cytokine rescue, dose response, luminescence, retest (AID 449756); format: functional, cell-based; details: Rattus norvegicus;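 also: cell death triggered by IL-1 beta plus TNF-alpha plus IFN-gamma mixture; protective hits raise ATP signal compared with cytokine alone wells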
[7] = target: T2, Sentrin-specific protease 7 (Homo sapiens, UniProt Q9BQF6); format: functional;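 also: Luminescence-based dose-response confirmation of ultra-high-throughput screening hits, measuring inhibition of SENP7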
T2 sequence (Q9BQF6 whole entry): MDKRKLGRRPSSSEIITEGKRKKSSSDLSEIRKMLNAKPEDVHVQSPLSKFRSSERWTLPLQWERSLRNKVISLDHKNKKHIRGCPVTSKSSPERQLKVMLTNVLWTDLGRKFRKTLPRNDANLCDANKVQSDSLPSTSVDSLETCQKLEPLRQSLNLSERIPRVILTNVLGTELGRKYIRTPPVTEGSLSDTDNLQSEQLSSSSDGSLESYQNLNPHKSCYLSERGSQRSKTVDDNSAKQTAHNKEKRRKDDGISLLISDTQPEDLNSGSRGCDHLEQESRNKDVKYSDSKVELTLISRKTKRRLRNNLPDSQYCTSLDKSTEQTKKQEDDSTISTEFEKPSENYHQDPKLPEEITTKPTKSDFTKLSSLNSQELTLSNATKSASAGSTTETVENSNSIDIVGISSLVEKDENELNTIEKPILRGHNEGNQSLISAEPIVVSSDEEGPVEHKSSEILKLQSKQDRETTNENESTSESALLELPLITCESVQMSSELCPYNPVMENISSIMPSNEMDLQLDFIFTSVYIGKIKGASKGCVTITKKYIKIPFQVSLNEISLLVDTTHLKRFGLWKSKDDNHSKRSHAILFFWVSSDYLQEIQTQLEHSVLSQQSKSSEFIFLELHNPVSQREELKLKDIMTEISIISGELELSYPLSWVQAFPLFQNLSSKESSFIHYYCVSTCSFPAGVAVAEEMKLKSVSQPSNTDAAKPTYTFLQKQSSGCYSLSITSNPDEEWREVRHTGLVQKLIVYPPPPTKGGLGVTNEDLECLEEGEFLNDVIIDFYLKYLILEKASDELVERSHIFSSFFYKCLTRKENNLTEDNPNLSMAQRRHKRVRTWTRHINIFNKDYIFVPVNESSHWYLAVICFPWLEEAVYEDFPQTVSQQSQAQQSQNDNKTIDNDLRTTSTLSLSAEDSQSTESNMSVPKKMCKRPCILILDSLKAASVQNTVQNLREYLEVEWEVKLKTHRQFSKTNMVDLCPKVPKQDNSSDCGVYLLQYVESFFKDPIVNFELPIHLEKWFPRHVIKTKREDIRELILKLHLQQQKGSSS

[8] = test system: BJ; assay: cells; format: functional, cell-based; details: Homo sapiens
[9] = test system: BJ; assay: cytotoxicity toward BJ-TERT fibroblasts, dose response, cell-based, RAS-independent, luminescence (AID 1933); format: functional; details: Homo sapiens
[10] = target: T3, Kappa-type opioid receptor (Homo sapiens, UniProt P41145); format: functional
[11] = inhibitors of firefly luciferase expression or activity, dose response, H4 neuroglioma cells, luminescence (AID 1990); format: functional, cell-based
[12] = target: T4, Delta-type opioid receptor (Homo sapiens, UniProt P41143); assay: HTS Image-Based Screen for Antagonists of the DOR Receptor. [Related pubchem assays (depositor defined):AID1777, AID1785, AID1786, AID2133]; format: functional
[13] = target: Beta-galactosidase (Escherichia coli, UniProt Q8VNN2); format: functional
[14] = inhibitors of SNCA 5'UTR-driven reporter translation, confirmation, H4 neuroglioma cells, luminescence (AID 1988); format: functional, cell-based
[15] = cytotoxicity toward DRD oncogenic fibroblasts, dose response, cell-based, non-viral oncogenic, luminescence (AID 1934); format: functional; details: Homo sapiens
[16] = Luminescence-based dose response cell-based high throughput screening assay for cytotoxic compounds using the IEC-6 intestinal epithelial cell line. [Related pubchem assays: 1858 (Summary AID.), 1825 (Counterscreen.), 1907 (Confirmation screen.)]; format: functional
[17] = cells; format: functional, cell-based
[18] = target: T3, Kappa-type opioid receptor; format: functional; remark: listed apart in the source
[19] = target: T5, Sentrin-specific protease 6 (Homo sapiens, UniProt Q9GZR1); format: functional;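 also: Luminescence-based dose-response confirmatory assay of SENP6 inhibition, following up an ultra-high-throughput screen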
T5 sequence (Q9GZR1 whole entry): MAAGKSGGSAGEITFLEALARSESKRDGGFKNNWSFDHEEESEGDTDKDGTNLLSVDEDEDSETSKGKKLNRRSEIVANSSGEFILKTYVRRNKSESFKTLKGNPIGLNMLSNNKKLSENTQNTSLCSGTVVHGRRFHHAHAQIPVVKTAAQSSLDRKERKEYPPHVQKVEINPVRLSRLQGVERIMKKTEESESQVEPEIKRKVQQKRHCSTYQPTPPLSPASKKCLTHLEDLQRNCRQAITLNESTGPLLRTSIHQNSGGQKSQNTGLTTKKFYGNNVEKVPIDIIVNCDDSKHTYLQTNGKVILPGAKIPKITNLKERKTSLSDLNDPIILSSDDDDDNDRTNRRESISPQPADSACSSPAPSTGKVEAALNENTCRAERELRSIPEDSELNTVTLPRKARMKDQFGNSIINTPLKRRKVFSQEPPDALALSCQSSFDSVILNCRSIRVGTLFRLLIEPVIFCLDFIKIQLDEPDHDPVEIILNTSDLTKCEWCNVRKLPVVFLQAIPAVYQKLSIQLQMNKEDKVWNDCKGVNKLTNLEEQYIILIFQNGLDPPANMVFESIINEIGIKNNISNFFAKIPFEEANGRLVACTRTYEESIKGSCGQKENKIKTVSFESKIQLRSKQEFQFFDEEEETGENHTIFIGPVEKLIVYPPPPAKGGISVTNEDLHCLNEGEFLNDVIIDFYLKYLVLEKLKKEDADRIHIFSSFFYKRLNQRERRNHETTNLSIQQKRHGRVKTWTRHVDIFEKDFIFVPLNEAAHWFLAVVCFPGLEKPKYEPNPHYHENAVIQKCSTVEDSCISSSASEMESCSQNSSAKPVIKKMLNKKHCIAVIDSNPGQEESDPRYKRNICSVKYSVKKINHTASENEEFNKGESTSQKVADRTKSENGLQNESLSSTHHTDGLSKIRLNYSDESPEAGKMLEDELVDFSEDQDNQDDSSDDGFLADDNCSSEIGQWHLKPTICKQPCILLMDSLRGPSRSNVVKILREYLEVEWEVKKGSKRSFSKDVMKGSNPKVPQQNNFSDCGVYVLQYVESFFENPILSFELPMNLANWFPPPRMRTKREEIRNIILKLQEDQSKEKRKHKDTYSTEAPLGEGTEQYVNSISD

[20] = cells; format: functional, cell-based; remark: listed apart in the source
[21] = target: T4, Delta-type opioid receptor; assay: HTS Image-Based Screen for Agonists of the DOR Receptor. [Related pubchem assays (depositor defined):AID1777, AID1786, AID2133]; format: functional
[22] = target: T6, Caspase-3 (Homo sapiens, UniProt P42574); format: functional;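 also: Dose-response selectivity test against caspase-3 for candidate inhibitors of sentrin-specific proteases (SENPs)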
T6 sequence (P42574 whole entry): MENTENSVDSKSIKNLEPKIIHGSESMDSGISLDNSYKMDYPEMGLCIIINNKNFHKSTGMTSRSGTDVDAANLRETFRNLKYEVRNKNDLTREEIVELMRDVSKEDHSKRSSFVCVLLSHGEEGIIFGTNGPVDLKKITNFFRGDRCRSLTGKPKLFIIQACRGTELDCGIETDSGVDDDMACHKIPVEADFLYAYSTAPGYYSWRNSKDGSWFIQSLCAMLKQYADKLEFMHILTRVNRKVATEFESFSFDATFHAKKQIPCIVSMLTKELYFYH

[23] = target: T7, Sentrin-specific protease 8 (Homo sapiens, UniProt Q96LD8); format: functional;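 also: luminescence read-out of SENP8 inhibition, dose-response confirmation following an ultra-high-throughput screen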
T7 sequence (Q96LD8 whole entry): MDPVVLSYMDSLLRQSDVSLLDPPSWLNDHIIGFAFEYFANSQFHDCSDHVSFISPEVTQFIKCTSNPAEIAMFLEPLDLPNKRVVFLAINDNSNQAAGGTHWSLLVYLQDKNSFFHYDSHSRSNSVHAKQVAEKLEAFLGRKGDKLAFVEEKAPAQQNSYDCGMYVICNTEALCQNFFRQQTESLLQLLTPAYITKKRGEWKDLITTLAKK

[24] = test system: BJ; assay: cytotoxicity toward BJ-TERT-LT-ST fibroblasts, dose response, cell-based, RAS-independent, luminescence (AID 1935); format: functional; details: Homo sapiens;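 also: BJ fibroblasts immortalized with TERT plus LT and ST oncogenes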
[25] = Luminescence Cell-Based Dose Response HTS to Identify Inhibitors of 5'UTR Stem-Loop Driven Prion Protein mRNA Translation in H4 Neuroglioblastoma Cells. [Related pubchem assays: 1827 (Project Summary), 1813 (Primary HTS)]; format: functional
[26] = target: Intestinal-type alkaline phosphatase (Mus musculus, UniProt P24822); assay: mouse intestinal alkaline phosphatase activators, dose response, biochemical, luminescence, uHTS hits (AID 488783); format: functional
[27] = target: Intestinal-type alkaline phosphatase (Homo sapiens, UniProt P09923); assay: activation of human intestinal alkaline phosphatase – biochemical, dose response (AID 488873); format: functional
[28] = target: T8, Alkaline phosphatase, tissue-nonspecific isozyme (Homo sapiens, UniProt P05186); assay: TNAP enzyme activators, dose response, selectivity assay for mouse IAP activator project, biochemical, TNAP isozyme, mouse IAP uHTS hits (AID 488880); format: functional
T8 sequence (P05186 whole entry): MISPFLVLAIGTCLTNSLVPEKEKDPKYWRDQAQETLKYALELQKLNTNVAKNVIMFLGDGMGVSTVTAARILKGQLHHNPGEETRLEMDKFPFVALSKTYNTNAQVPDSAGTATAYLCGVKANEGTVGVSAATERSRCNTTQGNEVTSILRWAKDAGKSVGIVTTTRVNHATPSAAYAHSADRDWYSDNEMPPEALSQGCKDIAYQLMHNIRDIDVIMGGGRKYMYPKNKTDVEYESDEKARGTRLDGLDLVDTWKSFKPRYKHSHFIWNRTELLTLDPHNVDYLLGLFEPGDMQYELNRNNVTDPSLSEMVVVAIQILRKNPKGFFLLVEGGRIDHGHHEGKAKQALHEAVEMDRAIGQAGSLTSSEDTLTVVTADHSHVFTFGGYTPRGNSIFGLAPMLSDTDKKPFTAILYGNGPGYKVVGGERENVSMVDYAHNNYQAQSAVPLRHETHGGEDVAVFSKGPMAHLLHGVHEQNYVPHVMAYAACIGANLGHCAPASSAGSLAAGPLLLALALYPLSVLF

T4 sequence (P41143 whole entry): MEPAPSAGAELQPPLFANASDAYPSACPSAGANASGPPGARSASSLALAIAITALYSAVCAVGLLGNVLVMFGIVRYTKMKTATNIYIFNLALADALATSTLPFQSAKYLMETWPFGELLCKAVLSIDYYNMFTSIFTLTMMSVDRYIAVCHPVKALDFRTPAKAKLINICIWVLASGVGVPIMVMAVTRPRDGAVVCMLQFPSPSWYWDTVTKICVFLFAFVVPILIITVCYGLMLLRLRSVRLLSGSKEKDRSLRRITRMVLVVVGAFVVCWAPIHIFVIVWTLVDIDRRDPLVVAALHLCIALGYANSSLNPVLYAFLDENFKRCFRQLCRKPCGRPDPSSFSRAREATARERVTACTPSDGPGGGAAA
T3 sequence (P41145 whole entry): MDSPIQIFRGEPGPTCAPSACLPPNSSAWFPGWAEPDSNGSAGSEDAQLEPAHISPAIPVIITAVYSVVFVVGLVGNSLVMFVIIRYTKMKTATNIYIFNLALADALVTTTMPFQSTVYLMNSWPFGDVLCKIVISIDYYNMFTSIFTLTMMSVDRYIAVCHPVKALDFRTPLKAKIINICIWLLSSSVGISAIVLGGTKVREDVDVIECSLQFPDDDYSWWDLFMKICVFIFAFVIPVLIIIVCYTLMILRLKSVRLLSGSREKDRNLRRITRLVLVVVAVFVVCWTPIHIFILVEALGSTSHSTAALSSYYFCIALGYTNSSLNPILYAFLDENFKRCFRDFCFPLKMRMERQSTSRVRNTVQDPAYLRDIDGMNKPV
Intestinal-type alkaline phosphatase (Homo sapiens, UniProt P09923), sequence (P09923 whole entry): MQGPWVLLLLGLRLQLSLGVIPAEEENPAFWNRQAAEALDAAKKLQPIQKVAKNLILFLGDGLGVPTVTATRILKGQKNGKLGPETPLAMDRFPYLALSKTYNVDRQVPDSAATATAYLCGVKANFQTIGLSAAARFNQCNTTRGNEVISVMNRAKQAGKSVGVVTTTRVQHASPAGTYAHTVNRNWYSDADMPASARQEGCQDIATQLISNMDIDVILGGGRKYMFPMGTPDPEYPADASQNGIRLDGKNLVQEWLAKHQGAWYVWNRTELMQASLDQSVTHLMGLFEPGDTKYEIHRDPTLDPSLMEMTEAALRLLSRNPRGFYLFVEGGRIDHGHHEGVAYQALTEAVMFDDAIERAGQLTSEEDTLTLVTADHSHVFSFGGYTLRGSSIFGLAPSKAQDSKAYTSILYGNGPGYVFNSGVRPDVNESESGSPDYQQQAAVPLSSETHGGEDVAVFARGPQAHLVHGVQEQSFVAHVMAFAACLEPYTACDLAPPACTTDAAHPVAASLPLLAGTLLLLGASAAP
Mu-type opioid receptor, sequence (P35372 whole entry): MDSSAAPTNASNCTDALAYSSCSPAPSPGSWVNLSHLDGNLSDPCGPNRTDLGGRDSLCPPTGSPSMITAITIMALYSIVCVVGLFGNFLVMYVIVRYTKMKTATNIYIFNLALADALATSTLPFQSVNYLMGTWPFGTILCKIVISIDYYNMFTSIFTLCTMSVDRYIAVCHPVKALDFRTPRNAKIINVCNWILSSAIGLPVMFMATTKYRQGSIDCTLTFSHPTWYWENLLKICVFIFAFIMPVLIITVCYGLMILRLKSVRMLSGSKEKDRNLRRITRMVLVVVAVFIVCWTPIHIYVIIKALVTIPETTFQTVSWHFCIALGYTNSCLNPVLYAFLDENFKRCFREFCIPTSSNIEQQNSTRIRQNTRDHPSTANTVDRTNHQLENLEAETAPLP
Peroxisome proliferator-activated receptor gamma/Nuclear receptor coactivator 3, sequence (P37231 whole entry): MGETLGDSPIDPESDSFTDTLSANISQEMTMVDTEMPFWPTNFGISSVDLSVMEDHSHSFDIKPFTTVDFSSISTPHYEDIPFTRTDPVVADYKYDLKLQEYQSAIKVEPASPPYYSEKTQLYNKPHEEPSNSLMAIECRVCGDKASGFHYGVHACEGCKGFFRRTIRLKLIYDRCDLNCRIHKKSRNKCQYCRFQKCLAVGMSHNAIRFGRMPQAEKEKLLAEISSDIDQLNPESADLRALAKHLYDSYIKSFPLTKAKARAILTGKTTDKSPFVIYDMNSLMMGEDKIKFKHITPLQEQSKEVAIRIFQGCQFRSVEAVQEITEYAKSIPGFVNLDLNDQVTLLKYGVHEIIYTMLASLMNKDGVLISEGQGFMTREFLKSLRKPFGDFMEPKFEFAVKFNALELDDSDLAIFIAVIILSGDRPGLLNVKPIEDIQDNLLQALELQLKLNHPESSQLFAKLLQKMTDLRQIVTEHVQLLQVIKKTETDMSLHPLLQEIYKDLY
Peroxisome proliferator-activated receptor gamma/Nuclear receptor coactivator 3, sequence (Q9Y6Q9 whole entry, further chain): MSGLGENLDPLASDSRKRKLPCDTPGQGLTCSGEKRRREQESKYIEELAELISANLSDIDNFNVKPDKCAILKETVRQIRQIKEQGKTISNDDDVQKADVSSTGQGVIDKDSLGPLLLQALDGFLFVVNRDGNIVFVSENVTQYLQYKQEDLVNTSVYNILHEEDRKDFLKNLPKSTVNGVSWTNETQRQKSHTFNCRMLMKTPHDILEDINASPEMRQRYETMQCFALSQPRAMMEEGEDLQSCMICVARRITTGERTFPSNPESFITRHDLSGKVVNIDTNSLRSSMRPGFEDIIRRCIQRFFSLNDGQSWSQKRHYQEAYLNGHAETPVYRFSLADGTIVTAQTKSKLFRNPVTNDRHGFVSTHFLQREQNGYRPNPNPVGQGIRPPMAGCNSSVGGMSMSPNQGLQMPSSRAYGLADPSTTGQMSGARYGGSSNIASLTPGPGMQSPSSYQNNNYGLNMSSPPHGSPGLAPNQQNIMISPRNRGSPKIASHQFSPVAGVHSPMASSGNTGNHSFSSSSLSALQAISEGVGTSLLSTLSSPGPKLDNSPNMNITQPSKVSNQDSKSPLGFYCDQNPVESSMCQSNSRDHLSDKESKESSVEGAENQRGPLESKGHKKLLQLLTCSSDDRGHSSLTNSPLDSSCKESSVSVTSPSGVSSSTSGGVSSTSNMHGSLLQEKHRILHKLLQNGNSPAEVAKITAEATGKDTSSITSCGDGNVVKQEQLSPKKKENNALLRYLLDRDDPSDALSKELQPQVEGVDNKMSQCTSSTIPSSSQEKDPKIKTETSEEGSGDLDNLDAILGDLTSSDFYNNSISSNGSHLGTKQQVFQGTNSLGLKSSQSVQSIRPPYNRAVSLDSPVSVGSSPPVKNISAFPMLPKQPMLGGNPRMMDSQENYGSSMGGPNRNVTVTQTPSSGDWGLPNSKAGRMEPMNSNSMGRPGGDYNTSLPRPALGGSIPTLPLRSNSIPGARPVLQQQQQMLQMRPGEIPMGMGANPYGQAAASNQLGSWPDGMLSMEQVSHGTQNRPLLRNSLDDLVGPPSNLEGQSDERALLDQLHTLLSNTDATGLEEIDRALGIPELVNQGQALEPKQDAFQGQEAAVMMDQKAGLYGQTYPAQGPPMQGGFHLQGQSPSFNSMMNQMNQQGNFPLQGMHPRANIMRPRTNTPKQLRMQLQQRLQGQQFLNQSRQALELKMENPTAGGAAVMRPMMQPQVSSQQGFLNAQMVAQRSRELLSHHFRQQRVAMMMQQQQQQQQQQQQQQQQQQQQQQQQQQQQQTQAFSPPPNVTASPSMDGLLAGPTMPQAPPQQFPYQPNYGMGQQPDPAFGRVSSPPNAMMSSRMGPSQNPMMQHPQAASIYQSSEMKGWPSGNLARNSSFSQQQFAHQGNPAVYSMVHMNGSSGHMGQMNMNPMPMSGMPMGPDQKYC
Beta-galactosidase, sequence (Q8VNN2 whole entry): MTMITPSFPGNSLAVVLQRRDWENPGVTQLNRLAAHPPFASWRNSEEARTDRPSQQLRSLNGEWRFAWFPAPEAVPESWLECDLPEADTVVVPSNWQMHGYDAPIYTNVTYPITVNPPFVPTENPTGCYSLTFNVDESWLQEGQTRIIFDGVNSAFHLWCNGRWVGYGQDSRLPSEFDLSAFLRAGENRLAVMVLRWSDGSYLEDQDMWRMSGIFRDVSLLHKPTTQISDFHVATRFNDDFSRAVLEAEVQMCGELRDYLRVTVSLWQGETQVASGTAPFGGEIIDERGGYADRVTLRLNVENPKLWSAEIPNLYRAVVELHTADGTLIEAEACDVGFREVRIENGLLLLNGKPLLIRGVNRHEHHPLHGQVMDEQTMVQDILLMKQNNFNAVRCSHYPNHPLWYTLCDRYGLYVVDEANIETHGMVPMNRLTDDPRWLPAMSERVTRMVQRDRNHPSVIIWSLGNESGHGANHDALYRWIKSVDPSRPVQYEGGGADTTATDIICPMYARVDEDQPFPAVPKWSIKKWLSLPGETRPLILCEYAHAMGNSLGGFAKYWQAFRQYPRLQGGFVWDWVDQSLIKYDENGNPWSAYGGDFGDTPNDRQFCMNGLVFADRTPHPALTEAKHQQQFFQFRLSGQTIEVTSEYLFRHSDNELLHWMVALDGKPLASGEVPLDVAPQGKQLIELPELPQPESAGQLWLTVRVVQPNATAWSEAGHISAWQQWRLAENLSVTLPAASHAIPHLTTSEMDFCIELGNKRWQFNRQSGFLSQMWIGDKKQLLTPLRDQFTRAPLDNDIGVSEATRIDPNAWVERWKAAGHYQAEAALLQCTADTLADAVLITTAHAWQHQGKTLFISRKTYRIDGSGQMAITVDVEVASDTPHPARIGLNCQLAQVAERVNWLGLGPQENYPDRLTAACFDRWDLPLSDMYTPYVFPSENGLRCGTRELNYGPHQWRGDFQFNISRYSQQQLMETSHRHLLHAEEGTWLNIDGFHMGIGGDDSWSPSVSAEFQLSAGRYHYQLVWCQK

O=C(CCSc1nnc2ccc3ccccc3n12)Nc1ccc(F)cc1
EC50 [1]: > 79.4 µM (not active) | EC50 [2]: 24.3 µM (inactive) | EC50 [3]: 20.9 µM (not active) | IC50 [4]: > 50 µM (inactive)

COc1cccc2sc(Nc3nc(-c4ccccn4)cs3)nc12
EC50 [5]: > 32 µM (inactive) | AC50 [6]: 1.17 µM (active) | IC50 [7]: 4.38 µM (active) | EC50 [8]: 12.2 µM (active) | EC50 [9]: 12.3 µM (inconclusive) | IC50 [10]: > 32 µM | EC50 [11]: 84.1 µM (active) | IC50 [12]: > 32 µM (inactive) | EC50 [13]: > 31.5 µM (inactive) | EC50 [14]: 2.23 µM (active) | EC50 [15]: 17.5 µM (inconclusive) | IC50 [16]: 1.4 µM (active) | EC50 [17]: 64.5 µM (active) | IC50 [18]: 1.62 µM (active) | IC50 [19]: 6.04 µM (active) | EC50 [20]: 6.91 µM (active) | EC50 [21]: > 32 µM (inactive) | IC50 [22]: 31.7 µM (active) | IC50 [23]: > 100 µM (inactive) | EC50 [24]: 8.02 µM (inconclusive) | EC50 [25]: 0.126 µM (active)

Nc1cc2nc3ccccc3oc-2cc1=O
EC50 [26]: 64.1 µM (active) | EC50 [27]: 72.1 µM (active) | EC50 [28]: 74.5 µM (active)
